Assay results: US20070122849A1, “Rhesus monkey P2X7 purinergic receptor and uses thereof” (priority 2005, published 2007)
pEC50: −log10 of the molar value.

Tests used:
rhP2X7 receptor [1] = experiment: rhP2X7 receptor activity in stably transfected HEK293 cells (calcium flux and change in membrane potential after agonist activation); type: cell-based, Macaca mulatta (Rhesus monkey); conditions: recombinant rhP2X7 receptor
Protocol: RhP2X7 receptor activity in the stably transfected HEK293 cells was monitored by measuring calcium flux and change in membrane potential subsequent to activation with potent agonists (ATP, Bz-ATP). The membrane potential was measured using the following protocol.
Stably transfected recombinant HEK293 cells were plated into the wells of a 384-well Costar plates (25 μL/well) in growth medium (DMEM without pyruvate (Invitrogen-11965-084) with 10% FBS (Invitrogen 10082-139), 100 U/ml P/S (Invitrogen 15140-148), and 100 ug/mL hygromycin (Roche, 843555) and the plates incubated for 24 hours at 37° C., 5% CO2. Then, 25 μL of membrane potential buffer (Blue dye, Molecular Devices, Sunnyvale, Calif.) was added to the medium and the cells incubated for 30 minutes at 37° C., 5% CO2. Next, about 30 to 100 nL of either analyte or antagonist control or 10 μL agonist 3′-O-(4-benzoylbenzoyl)-ATP (Bz-ATP) (at an EC80) was added to the medium in separate wells of the plates. After incubating the plates for 30 minutes at 37° C., 5% CO2, fluorescence was read using a fluorometric plate reader (FLIPR, Molecular Devices). Data were analyzed using the formula EC50=using (Max−Min); Signal to Noise Ratio (S/B)=Max/Min; Z′ Factor=1−[3*SD of Max)+(3*SD of Min)/(mean of Max−mean of Min).
Calcium flux was measured using the following FLIPR Calcium Flux Assay protocol (Molecular Devices, Sunnyvale, Calif.). […]

rhP2X7 receptor [2] = experiment: calcium flux protocol for high throughput screen using cells that express the rhP2X7 receptor; type: cell-based, Macaca mulatta (Rhesus monkey); conditions: agonist used in the example screening protocol; source of the value not stated
Protocol: The following is an example of a calcium flux protocol that can be used in a high throughput screen using cells that express the rhP2X7 receptor. The cells are grown to about 75-85% confluence, rinsed with DPBS (5.33 mM KCl, 0.44 mM KH2PO4, 0.3 mM Na2HPO4, 4 mM NaHCO3, 0.1% Glucose, 138 mM N-methyl glucamine), and dissociated with 0.05% trypsin. Then, about 20,000 cells are plated into multiple of the wells of multiwell plates in complete growth medium. The cells are incubated at 37° C. and 5% CO2 for about 20 to 24 hours. Next, about 20 μL FLUO-4 loading buffer (Invitrogen) is added to each of the wells and the cells incubated at RT for 60 minutes. Then, about 10 μL aliquots of each analyte to be tested (final concentration in DMSO about 0.1%) diluted in TR-40 quenching solution (Sigma #T2397) is added to a well containing cells. Controls include antagonists such as KN-62 and Ox-ATP and agonists such as Bz-ATP (at an EC80). The cells are incubated for about 10 minutes at RT.

Structure (SMILES)	pEC50 (rhP2X7 receptor [1])	pEC50 (rhP2X7 receptor [2])
Nc1ncnc2c1ncn2[C@@H]1O[C@H](COP(=O)(O)OP(=O)(O)OP(=O)(O)O)[C@@H](O)[C@H]1O [ATP]	~2.52	–
Nc1ncnc2c1ncn2[C@@H]1O[C@H](COP(=O)(O)OP(=O)(O)OP(=O)(O)O)[C@@H](OC(=O)c2ccc(C(=O)c3ccccc3)cc2)[C@H]1O [Bz-ATP, 3′-O-(4-benzoylbenzoyl)-ATP]	~3.82	–
Nc1ncnc2c1ncn2[C@@H]1O[C@H](COP(=O)(O)CP(=O)(O)OP(=O)(O)O)[C@@H](O)[C@H]1O [a,b-methylene ATP]	–	3.46
